Laboratory results reported in ChEMBL document CHEMBL2086238, “Identification of ETP-46321, a potent and orally bioavailable PI3K α, δ inhibitor” (Bioorg Med Chem Lett, 2012).
pIC50, pKi: −log10 of the molar value.

Assays:
[1] = molecular target: PI3-kinase p110-alpha/p85-alpha (Homo sapiens, UniProt P42336); experiment: Inhibition of human PI3Kalpha (p110alpha/p85alpha) by ADP accumulation based HTRF assay; assay type: protein-complex assay; conditions: for pKi: read-out: Ki(app)
[2] = molecular target: Phosphatidylinositol 4,5-bisphosphate 3-kinase catalytic subunit alpha isoform (Homo sapiens, UniProt P42336); experiment: Inhibition of PI3Kalpha in human U2OS cells assessed as inhibition of AKT Ser 473 phosphorylation by Western blot; assay type: cell-based
Sequence of Phosphatidylinositol 4,5-bisphosphate 3-kinase catalytic subunit alpha isoform (P42336 whole entry, canonical isoform): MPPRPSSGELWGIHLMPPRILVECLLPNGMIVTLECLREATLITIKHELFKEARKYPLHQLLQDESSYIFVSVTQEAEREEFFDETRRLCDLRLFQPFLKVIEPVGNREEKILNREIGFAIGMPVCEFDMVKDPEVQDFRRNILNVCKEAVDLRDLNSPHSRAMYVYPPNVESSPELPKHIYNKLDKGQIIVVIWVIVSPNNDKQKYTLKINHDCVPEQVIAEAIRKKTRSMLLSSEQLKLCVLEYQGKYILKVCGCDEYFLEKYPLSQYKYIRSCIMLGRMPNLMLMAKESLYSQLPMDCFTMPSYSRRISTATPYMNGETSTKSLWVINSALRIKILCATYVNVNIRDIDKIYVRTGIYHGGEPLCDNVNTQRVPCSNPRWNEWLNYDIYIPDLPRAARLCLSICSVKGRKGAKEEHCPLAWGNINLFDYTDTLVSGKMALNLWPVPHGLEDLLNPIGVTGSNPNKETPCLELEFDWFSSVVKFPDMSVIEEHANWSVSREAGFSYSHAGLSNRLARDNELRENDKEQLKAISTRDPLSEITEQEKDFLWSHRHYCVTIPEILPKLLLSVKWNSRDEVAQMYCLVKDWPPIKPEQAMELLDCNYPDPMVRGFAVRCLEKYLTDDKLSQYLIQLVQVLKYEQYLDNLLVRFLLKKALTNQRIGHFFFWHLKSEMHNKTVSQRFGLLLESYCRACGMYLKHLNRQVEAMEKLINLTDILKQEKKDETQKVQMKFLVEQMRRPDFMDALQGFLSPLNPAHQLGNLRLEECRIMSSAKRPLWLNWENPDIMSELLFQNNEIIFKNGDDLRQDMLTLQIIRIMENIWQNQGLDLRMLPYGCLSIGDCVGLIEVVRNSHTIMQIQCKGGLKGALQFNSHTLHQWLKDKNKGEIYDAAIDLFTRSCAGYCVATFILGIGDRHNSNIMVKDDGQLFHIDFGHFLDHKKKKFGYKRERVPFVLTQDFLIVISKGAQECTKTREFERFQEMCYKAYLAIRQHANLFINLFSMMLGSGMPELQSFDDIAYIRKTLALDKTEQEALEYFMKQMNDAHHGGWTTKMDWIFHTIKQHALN

[3] = molecular target: PI3-kinase p110-delta/p85-alpha (Homo sapiens, UniProt O00329); experiment: Inhibition of human PI3Kdelta (p110delta/p85alpha) by ADP accumulation based HTRF assay; assay type: protein-complex assay; conditions: read-out: Ki(app)
Sequence of PI3-kinase p110-delta/p85-alpha (P27986 whole entry): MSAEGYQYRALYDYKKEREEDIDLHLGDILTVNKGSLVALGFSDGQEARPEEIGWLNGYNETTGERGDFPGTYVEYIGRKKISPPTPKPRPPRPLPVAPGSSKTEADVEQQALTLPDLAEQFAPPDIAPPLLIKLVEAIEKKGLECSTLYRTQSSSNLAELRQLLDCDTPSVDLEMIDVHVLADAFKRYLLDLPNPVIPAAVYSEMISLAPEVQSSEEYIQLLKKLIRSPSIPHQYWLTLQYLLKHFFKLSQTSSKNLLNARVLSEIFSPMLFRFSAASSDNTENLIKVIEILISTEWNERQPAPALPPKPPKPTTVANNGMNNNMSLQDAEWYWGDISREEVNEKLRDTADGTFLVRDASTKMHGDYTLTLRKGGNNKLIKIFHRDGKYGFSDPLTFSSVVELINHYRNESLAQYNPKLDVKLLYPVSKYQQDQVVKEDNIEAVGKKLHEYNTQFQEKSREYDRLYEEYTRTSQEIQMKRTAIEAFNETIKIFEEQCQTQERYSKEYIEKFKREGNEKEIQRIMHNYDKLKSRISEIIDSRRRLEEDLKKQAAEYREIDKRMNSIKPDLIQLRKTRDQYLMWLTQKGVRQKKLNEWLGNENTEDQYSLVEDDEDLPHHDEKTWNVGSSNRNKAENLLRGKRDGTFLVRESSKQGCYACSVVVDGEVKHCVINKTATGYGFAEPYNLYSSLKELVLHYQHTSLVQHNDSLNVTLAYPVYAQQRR
Sequence of PI3-kinase p110-delta/p85-alpha (O00329 whole entry): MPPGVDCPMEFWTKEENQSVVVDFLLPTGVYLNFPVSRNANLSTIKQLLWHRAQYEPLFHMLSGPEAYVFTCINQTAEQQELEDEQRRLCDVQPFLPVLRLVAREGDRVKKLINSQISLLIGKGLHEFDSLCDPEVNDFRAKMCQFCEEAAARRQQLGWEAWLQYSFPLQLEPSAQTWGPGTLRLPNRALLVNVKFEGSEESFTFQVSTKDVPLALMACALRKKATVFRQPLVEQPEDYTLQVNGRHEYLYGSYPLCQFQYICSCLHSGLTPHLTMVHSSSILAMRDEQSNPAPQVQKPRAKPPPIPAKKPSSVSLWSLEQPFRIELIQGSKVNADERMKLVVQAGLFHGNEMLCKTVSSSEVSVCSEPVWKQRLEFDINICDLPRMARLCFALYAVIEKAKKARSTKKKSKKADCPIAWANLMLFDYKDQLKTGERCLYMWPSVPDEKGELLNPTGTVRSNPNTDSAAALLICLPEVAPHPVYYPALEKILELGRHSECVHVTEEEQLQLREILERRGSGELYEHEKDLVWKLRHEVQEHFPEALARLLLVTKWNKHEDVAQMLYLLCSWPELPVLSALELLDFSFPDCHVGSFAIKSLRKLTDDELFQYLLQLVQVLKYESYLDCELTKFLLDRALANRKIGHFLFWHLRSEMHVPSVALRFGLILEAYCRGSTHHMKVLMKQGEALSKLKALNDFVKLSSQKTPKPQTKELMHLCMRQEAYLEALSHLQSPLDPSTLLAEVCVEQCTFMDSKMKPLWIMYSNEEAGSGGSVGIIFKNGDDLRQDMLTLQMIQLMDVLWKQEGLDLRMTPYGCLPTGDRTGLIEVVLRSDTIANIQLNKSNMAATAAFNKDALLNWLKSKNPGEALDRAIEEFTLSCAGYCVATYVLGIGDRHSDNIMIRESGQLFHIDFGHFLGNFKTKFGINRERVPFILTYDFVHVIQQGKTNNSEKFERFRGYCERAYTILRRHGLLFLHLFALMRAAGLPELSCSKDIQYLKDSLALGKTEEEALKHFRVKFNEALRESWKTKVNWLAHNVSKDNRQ

PI3K p110 beta/p85 alpha = PI3K p110 beta/p85 alpha (Homo sapiens, UniProt P42338); experiment: Inhibition of human PI3Kbeta (p110beta/p85alpha) by ADP accumulation based HTRF assay; assay type: protein-complex assay; conditions: read-out: Ki(app)
[4] = molecular target: Phosphatidylinositol 4,5-bisphosphate 3-kinase catalytic subunit gamma isoform (Homo sapiens, UniProt P48736); experiment: Inhibition of human PI3Kgamma by ADP accumulation based HTRF assay; conditions: read-out: Ki(app)
CYP2D6 = CYP2D6 (Homo sapiens, UniProt P10635); experiment: Inhibition of CYP2D6 at 10 uM; assay type: ADME
Sequence of CYP2D6 (P10635 whole entry): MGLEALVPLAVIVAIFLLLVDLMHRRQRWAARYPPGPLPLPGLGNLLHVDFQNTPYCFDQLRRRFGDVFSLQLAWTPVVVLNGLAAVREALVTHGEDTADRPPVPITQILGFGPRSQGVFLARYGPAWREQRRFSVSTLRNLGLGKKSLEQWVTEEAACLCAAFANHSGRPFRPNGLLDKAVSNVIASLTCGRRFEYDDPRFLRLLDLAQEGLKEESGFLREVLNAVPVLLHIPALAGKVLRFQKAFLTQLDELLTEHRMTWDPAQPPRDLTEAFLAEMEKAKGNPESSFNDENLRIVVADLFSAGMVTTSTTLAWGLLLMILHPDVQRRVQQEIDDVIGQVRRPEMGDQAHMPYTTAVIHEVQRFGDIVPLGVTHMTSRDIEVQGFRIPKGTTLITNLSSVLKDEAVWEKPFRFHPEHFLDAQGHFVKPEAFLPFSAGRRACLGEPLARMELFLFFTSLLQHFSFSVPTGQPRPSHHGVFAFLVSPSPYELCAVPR

CYP2C9 = CYP2C9 (Homo sapiens, UniProt P11712); experiment: Inhibition of CYP2C9 at 10 uM; assay type: ADME
Sequence of CYP2C9 (P11712 whole entry): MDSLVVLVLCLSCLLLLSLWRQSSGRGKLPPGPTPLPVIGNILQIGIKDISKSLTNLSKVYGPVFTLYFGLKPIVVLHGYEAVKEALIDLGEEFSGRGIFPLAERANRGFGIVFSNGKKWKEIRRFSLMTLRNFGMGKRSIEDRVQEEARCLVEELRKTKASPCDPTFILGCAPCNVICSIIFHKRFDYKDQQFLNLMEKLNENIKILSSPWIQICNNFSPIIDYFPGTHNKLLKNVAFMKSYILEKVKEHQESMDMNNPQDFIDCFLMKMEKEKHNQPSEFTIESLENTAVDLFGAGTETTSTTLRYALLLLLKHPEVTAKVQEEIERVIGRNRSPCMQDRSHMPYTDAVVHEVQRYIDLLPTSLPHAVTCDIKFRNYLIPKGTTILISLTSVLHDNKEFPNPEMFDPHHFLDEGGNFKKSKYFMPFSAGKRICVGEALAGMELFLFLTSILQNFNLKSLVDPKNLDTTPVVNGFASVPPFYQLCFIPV

CYP3A4 = CYP3A4 (Homo sapiens, UniProt P08684); experiment: Inhibition of CYP3A4 at 10 uM; assay type: ADME
Sequence of CYP3A4 (P08684 whole entry): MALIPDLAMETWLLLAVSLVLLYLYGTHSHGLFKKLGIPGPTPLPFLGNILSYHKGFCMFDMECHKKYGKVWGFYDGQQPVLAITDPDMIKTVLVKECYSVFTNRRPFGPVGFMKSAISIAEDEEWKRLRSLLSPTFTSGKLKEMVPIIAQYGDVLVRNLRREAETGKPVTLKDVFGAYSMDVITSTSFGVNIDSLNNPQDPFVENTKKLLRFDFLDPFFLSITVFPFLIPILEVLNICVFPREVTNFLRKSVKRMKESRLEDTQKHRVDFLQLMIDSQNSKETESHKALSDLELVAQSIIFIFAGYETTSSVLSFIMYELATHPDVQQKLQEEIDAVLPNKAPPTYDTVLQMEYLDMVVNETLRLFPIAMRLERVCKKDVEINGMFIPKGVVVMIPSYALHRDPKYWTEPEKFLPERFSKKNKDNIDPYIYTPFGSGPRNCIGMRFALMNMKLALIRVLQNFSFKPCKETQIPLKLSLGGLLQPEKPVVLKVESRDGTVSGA

CYP1A2 = molecular target: T1, CYP1A2 (Homo sapiens, UniProt P05177); experiment: Inhibition of CYP1A2 at 10 uM; assay type: ADME
T1 sequence (P05177 whole entry): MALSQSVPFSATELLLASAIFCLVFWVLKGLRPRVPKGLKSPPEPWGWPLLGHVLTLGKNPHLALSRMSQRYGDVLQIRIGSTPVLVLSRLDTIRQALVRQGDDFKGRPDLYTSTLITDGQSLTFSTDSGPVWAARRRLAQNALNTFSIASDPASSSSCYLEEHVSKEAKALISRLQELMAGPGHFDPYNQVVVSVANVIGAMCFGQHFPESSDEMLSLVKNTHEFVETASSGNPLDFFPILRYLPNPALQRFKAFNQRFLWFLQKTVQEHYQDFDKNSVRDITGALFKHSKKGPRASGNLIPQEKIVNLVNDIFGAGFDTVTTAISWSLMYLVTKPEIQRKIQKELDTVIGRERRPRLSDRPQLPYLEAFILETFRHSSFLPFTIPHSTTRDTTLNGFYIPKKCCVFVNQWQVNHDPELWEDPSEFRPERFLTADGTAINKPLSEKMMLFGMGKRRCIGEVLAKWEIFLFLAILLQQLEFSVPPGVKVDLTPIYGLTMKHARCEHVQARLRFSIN

[5] = Stability in mouse liver microsomes at 1 uM incubated for 15 mins; assay type: ADME, Microsome; conditions: read-out: Stability
CYP2C19 = CYP2C19 (Homo sapiens, UniProt P33261); experiment: Inhibition of CYP2C19 at 10 uM; assay type: ADME
Sequence of CYP2C19 (P33261 whole entry): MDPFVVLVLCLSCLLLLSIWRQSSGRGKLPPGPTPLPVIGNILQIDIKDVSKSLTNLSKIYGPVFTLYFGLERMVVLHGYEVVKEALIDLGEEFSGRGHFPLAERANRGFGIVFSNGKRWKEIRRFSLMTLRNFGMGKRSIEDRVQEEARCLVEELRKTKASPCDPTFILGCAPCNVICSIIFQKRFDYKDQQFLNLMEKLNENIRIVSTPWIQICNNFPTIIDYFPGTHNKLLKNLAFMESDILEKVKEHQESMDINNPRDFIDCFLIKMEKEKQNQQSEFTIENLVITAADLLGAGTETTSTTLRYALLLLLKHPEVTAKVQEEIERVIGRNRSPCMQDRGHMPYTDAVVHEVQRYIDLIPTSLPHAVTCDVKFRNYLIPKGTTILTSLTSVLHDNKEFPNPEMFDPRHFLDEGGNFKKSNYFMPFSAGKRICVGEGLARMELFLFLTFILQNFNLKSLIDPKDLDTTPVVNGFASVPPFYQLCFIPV

[6] = Stability in human liver microsomes at 1 uM incubated for 15 mins; assay type: ADME, Microsome; conditions: read-out: Stability

Sequence of PI3-kinase p110-alpha/p85-alpha (P27986 whole entry, canonical isoform): as the sequence (P27986 whole entry) above
Sequence of PI3-kinase p110-alpha/p85-alpha (P42336 whole entry, canonical isoform): as the sequence (P42336 whole entry, canonical isoform) above

## CS(=O)(=O)N1CCN(Cc2cn3cc(-c4ccc5[nH]ccc5c4)nc(N4CCOCC4)c3n2)CC1
[1]
  pIC50: < 5.00

## C[C@@H]1CN(S(C)(=O)=O)C[C@H](C)N1Cc1cn2cc(-c3cnc(N)nc3)nc(N3CCOCC3)c2n1
[1]
  pIC50: 8.49
[2]
  pIC50: 6.61

## C[C@H]1CN(Cc2cn3cc(-c4cnc(N)nc4)nc(N4CCOCC4)c3n2)CCN1S(C)(=O)=O
[1]
  pIC50: 8.26
  pKi: 8.21
[2]
  pIC50: 6.92
[3]
  pKi: 7.83
PI3K p110 beta/p85 alpha
  pKi: 6.50
[4]
  pKi: 6.91

## CN(C)CC(=O)N1CCN(Cc2cn3cc(-c4cnc(N)nc4)nc(N4CCOCC4)c3n2)CC1
[2]
  pIC50: 6.32

## Cc1nc(N)ncc1-c1nc(N2CCOCC2)c2nc(CN3CCN(S(C)(=O)=O)CC3)cn2c1Cl
[1]
  pIC50: 7.89

## CCS(=O)(=O)N1CCN(Cc2cn3cc(-c4cnc(N)nc4)nc(N4CCOCC4)c3n2)CC1
CYP2D6
  inhibition at 10 µM: < 30%
[1]
  pIC50: 7.88
CYP2C9
  inhibition at 10 µM: < 30%
[2]
  pIC50: 7.01
CYP3A4
  inhibition at 10 µM: < 30%
CYP1A2
  inhibition at 10 µM: < 30%
[5]
  remaining at 0.25 h, 1 µM: 64%
CYP2C19
  inhibition at 10 µM: < 30%
[6]
  remaining at 0.25 h, 1 µM: 98%

## COc1ncc(-c2cn3cc(CN4CCN(S(C)(=O)=O)CC4)nc3c(N3CCOCC3)n2)cn1
[1]
  pIC50: 6.80

## C[C@@H]1CN(Cc2cn3cc(-c4cnc(N)nc4)nc(N4CCOCC4)c3n2)CCN1S(C)(=O)=O
[1]
  pIC50: 8.59

## CS(=O)(=O)N1CC2CN(Cc3cn4cc(-c5cnc(N)nc5)nc(N5CCOCC5)c4n3)CC2C1 (centres undefined)
[1]
  pIC50: 6.93

## C[C@H](O)C(=O)N1CCN(Cc2cn3cc(-c4cnc(N)nc4)nc(N4CCOCC4)c3n2)CC1
[1]
  pIC50: 7.46

## CNc1ncc(-c2nc(N3CCOCC3)c3nc(CN4CCN(S(C)(=O)=O)CC4)cn3c2Cl)cn1
[1]
  pIC50: 7.94

## CNc1ncc(-c2cn3cc(CN4CCN(S(C)(=O)=O)CC4)nc3c(N3CCOCC3)n2)cn1
[1]
  pIC50: 7.79

## COc1cncc(-c2cn3cc(CN4CCN(S(C)(=O)=O)CC4)nc3c(N3CCOCC3)n2)c1
[1]
  pIC50: 5.95

## Cc1ncc(-c2nc(N3CCOCC3)c3nc(CN4CCN(S(C)(=O)=O)CC4)cn3c2Cl)cn1
[1]
  pIC50: 7.67

## CS(=O)(=O)N1CCN(Cc2cn3c(Cl)c(-c4cnc(N)nc4C(F)(F)F)nc(N4CCOCC4)c3n2)CC1
[1]
  pIC50: 8.17

## CS(=O)(=O)C1CCN(Cc2cn3cc(-c4cnc(N)nc4)nc(N4CCOCC4)c3n2)CC1
[1]
  pIC50: 7.54

## CS(=O)(=O)N1CCN(Cc2cn3cc(-c4cccc5[nH]ccc45)nc(N4CCOCC4)c3n2)CC1
[1]
  pIC50: 5.60

## CS(=O)(=O)N1CCN(Cc2cn3c(Cl)c(-c4cnc5[nH]ccc5c4)nc(N4CCOCC4)c3n2)CC1
[1]
  pIC50: 6.78

## CS(=O)(=O)N1C2CCC1CN(Cc1cn3cc(-c4cnc(N)nc4)nc(N4CCOCC4)c3n1)C2
[1]
  pIC50: 6.97

## CS(=O)(=O)N1CCN(Cc2cn3cc(-c4ccc5[nH]ncc5c4)nc(N4CCOCC4)c3n2)CC1
[1]
  pIC50: < 5.00

## CS(=O)(=O)N1CCN(Cc2cn3cc(-c4cnc(N)c(C#N)c4)nc(N4CCOCC4)c3n2)CC1
[1]
  pIC50: 6.00

## CS(=O)(=O)N1CCN(Cc2cn3cc(-c4cnc(N)nc4C(F)(F)F)nc(N4CCOCC4)c3n2)CC1
CYP2D6
  inhibition at 10 µM: < 30%
[1]
  pIC50: 8.17
  pKi: 8.13
CYP2C9
  inhibition at 10 µM: < 30%
[2]
  pIC50: 7.99
[3]
  pKi: 8.30
CYP3A4
  inhibition at 10 µM: < 30%
CYP1A2
  inhibition at 10 µM: < 30%
PI3K p110 beta/p85 alpha
  pKi: 7.10
[4]
  pKi: 7.57
[5]
  remaining at 0.25 h, 1 µM: 96%
CYP2C19
  inhibition at 10 µM: < 30%
[6]
  remaining at 0.25 h, 1 µM: 82%

## CS(=O)(=O)N1CCN(Cc2cn3cc(-c4cncnc4)nc(N4CCOCC4)c3n2)CC1
[1]
  pIC50: 6.91
